# Assay results taken from patent US20240287147A1, “PD-L1 BINDING PEPTIDES AND PEPTIDE COMPLEXES AND METHODS OF USE THEREOF” (Fred Hutchinson Cancer Center, priority 2020, published 2024).
# System: PC3 tumors
# Settings: PC3, second cohort, T cells + 1 nmol or 0.1 nmol
substance,measurement,value
durvalumab,effect on PC3 flank tumors,no effect
